From ChEMBL document CHEMBL3044830, “Synthesis, characterization, antibacterial, antifungal, and immunomodulating activities of gatifloxacin derivatives” (Med Chem Res, 2010)

Legend:
Shigella sp. = assay: Antibacterial activity against Shigella typhi assessed as concentration required to obtain a zone of inhibition of 10 mm after 18 to 24 hr by disc diffusion method; format: functional
Blood [1] = assay: Antioxidant activity in Homo sapiens (human) whole blood assessed as inhibition of ROS production at 50 ug/ml after 30 min by luminol-enhanced chemiluminescence assay; format: functional; conditions: 0.5 h
Shigella flexneri = assay: Antibacterial activity against Shigella flexneri assessed as concentration required to obtain a zone of inhibition of 10 mm after 18 to 24 hr by disk diffusion method; format: functional
Fusarium solani [2] = assay: Antifungal activity against Fusarium solani assessed as concentration required to obtain a zone of inhibition of 20 mm after 7 days by disk diffusion method; format: functional
Blood [3] = assay: Antioxidant activity in Homo sapiens (human) whole blood assessed as inhibition of ROS production after 30 min by luminol-enhanced chemiluminescence assay; format: functional, tissue-based; conditions: 0.5 h
Blood [4] = assay: Antioxidant activity in Homo sapiens (human) whole blood assessed as inhibition of ROS production at 100 ug/ml after 30 min by luminol-enhanced chemiluminescence assay; format: functional; conditions: 0.5 h
Pseudomonas aeruginosa [5] = assay: Antibacterial activity against Pseudomonas aeruginosa assessed as zone of inhibition at 5 to 40 ug/ml after 18 to 24 hr by disk diffusion method relative to gatifloxacin; format: functional
Klebsiella pneumoniae [6] = assay: Antibacterial activity against Klebsiella pneumoniae assessed as concentration required to obtain a zone of inhibition of 5 mm after 18 to 24 hr by disk diffusion method; format: functional
Trichophyton rubrum [7] = assay: Antifungal activity against Trichophyton rubrum assessed as concentration required to obtain a zone of inhibition of 20 mm after 7 days by disk diffusion method; format: functional
Fusarium solani [8] = assay: Antifungal activity against Fusarium solani assessed as concentration required to obtain a zone of inhibition of 40 mm after 7 days by disk diffusion method; format: functional
Citrobacter = assay: Antibacterial activity against Citrobacter assessed as concentration required to obtain a zone of inhibition of 5 mm after 18 to 24 hr by disk diffusion method; format: functional
Fusarium solani [9] = assay: Antifungal activity against Fusarium solani assessed as zone of inhibition at 5 to 40 ug/ml after 7 days by disk diffusion method relative to gatifloxacin; format: functional
[10] = Antibacterial activity against Hofmanni bacterium assessed as concentration required to obtain a zone of inhibition of 10 mm after 18 to 24 hr by disc diffusion method
Klebsiella pneumoniae [11] = assay: Antibacterial activity against Klebsiella pneumoniae assessed as concentration required to obtain a zone of inhibition of 20 mm after 18 to 24 hr by disk diffusion method; format: functional
Escherichia coli [12] = assay: Antibacterial activity against Escherichia coli assessed as concentration required to obtain a zone of inhibition of 10 mm after 18 to 24 hr by disk diffusion method; format: functional
Escherichia coli [13] = assay: Antibacterial activity against Escherichia coli assessed as concentration required to obtain a zone of inhibition of 5 mm after 18 to 24 hr by disk diffusion method; format: functional
Pseudomonas aeruginosa [14] = assay: Antibacterial activity against Pseudomonas aeruginosa assessed as concentration required to obtain a zone of inhibition of 20 mm after 18 to 24 hr by disk diffusion method; format: functional
Klebsiella pneumoniae [15] = assay: Antibacterial activity against Klebsiella pneumoniae assessed as concentration required to obtain a zone of inhibition of 10 mm after 18 to 24 hr by disk diffusion method; format: functional
Trichophyton rubrum [16] = assay: Antifungal activity against Trichophyton rubrum assessed as concentration required to obtain a zone of inhibition of 40 mm after 7 days by disk diffusion method; format: functional

Structure (SMILES)	Activity (Shigella sp.)	inhibition at 50 µg/mL (Blood [1])	Activity (Shigella flexneri)	Activity (Fusarium solani [2])	IC50 (Blood [3])	inhibition at 100 µg/mL (Blood [4])	inhibition zone (IZ) (Pseudomonas aeruginosa [5])	Activity (Klebsiella pneumoniae [6])	Activity (Trichophyton rubrum [7])	Activity (Fusarium solani [8])	Activity (Citrobacter)	inhibition zone (IZ) (Fusarium solani [9])	Activity [10]	Activity (Klebsiella pneumoniae [11])	Activity (Escherichia coli [12])	Activity (Escherichia coli [13])	Activity (Pseudomonas aeruginosa [14])	Activity (Klebsiella pneumoniae [15])	Activity (Trichophyton rubrum [16])
COc1c(N2CCN(C(=O)c3ccccc3)C(C)C2)c(F)cc2c(=O)c(C(=O)O)cn(C3CC3)c12.O (stereo not given)	9 µg/mL	11.1%	13 µg/mL	17 µg/mL	> 100 µg/mL	15%	117.9%	8 µg/mL	21 µg/mL	19 µg/mL	8 µg/mL	120%	12 µg/mL	21 µg/mL	16 µg/mL	8 µg/mL	18 µg/mL	14 µg/mL	27 µg/mL
COc1c(N2CCN(C(C)=O)C(C)C2)c(F)cc2c(=O)c(C(=O)O)cn(C3CC3)c12.O (stereo not given)		-17.4%	22 µg/mL	13 µg/mL	> 100 µg/mL	-15.1%	150.1%	16 µg/mL	28 µg/mL	15 µg/mL	17 µg/mL	93.3%	12 µg/mL	25 µg/mL	17 µg/mL	10 µg/mL	24 µg/mL	23 µg/mL	34 µg/mL
CCCCCCCC(=O)N1CCN(c2c(F)cc3c(=O)c(C(=O)O)cn(C4CC4)c3c2OC)CC1C.O (stereo not given)		89.2%	15 µg/mL	14 µg/mL	< 12.5 µg/mL	96.1%	78.57%	13 µg/mL	16 µg/mL	19 µg/mL	8 µg/mL	110%	11 µg/mL	18 µg/mL	10 µg/mL	8 µg/mL	11 µg/mL	14 µg/mL	17 µg/mL
